In ChEMBL document CHEMBL1144852, “Optimization of a dihydropyrrolopyrazole series of transforming growth factor-beta type I receptor kinase domain inhibitors: discovery of an orally bioavailable transforming growth factor-beta receptor type I inhibitor as antitumor agent” (J Med Chem, 2008):
Calls of active or inactive are those of the source. No cut-off for these calls is given here.

Tests used:
[1] = molecular target: Mitogen-activated protein kinase 13 (Homo sapiens) (UniProt O15264); assay: Inhibition of Sapk4 at 20 uM
Chain of Mitogen-activated protein kinase 13 (Homo sapiens) (O15264 whole entry): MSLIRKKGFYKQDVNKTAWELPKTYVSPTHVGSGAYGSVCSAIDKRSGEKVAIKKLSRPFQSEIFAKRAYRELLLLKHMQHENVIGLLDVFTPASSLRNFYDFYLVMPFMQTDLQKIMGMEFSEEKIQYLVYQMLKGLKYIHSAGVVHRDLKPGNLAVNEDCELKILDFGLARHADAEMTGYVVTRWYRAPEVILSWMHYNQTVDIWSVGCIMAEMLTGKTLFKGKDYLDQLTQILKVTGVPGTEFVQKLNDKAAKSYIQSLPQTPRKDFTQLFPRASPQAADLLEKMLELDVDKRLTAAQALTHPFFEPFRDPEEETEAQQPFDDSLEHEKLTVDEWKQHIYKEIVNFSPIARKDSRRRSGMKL

[2] = molecular target: Cyclin-dependent kinase 1 (Homo sapiens) (UniProt P06493); assay: Inhibition of CDK1 at 20 uM
Chain of Cyclin-dependent kinase 1 (Homo sapiens) (P06493 whole entry, looked up): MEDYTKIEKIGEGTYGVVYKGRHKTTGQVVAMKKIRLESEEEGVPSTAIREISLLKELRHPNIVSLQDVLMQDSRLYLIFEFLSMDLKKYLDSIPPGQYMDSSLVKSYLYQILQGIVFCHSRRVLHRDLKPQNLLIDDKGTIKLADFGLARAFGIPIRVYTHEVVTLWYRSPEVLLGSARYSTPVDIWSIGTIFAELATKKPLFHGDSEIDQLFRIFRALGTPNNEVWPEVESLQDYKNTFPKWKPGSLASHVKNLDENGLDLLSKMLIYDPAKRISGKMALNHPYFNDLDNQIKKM

[3] = molecular target: Protein kinase C alpha type (Homo sapiens) (UniProt P17252); assay: Inhibition of PKCalpha at 20 uM
[4] = molecular target: Glycogen synthase kinase-3 beta (Homo sapiens) (UniProt P49841); assay: Inhibition of GSK3-beta at 20 uM
[5] = Inhibition of CK2 at 20 uM
[6] = molecular target: Tyrosine-protein kinase Fyn (Homo sapiens) (UniProt P06241); assay: Inhibition of Fyn at 20 uM
[7] = molecular target: Ribosomal protein S6 kinase beta-1 (Homo sapiens) (UniProt P23443); assay: Inhibition of p70S6K at 20 uM
[8] = molecular target: Protein kinase C beta type (Homo sapiens) (UniProt P05771); assay: Inhibition of PKC-beta-2 at 20 uM
Chain of Protein kinase C beta type (Homo sapiens) (P05771 2-671 limits assumed): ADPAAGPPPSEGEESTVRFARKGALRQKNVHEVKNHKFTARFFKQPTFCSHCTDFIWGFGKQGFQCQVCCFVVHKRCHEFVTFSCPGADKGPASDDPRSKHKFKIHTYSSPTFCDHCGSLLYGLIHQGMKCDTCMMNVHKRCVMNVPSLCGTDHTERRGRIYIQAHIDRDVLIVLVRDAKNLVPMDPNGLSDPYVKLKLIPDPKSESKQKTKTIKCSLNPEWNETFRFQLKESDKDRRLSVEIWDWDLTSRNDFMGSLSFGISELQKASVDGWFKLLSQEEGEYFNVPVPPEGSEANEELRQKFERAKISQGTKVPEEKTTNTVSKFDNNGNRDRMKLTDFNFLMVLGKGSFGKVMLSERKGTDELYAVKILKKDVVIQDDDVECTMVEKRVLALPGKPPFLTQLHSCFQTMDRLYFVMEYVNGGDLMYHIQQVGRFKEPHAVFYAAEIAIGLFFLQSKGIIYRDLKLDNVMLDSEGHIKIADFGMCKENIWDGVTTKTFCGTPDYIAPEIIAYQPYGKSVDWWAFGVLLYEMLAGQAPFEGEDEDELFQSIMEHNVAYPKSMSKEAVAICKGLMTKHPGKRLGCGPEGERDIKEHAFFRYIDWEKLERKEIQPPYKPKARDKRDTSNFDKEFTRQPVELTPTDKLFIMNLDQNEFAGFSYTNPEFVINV

[9] = molecular target: Mitogen-activated protein kinase 9 (Homo sapiens) (UniProt P45984); assay: Inhibition of JNK2-alpha-2 at 20 uM
Chain of Mitogen-activated protein kinase 9 (Homo sapiens) (P45984 whole entry, looked up): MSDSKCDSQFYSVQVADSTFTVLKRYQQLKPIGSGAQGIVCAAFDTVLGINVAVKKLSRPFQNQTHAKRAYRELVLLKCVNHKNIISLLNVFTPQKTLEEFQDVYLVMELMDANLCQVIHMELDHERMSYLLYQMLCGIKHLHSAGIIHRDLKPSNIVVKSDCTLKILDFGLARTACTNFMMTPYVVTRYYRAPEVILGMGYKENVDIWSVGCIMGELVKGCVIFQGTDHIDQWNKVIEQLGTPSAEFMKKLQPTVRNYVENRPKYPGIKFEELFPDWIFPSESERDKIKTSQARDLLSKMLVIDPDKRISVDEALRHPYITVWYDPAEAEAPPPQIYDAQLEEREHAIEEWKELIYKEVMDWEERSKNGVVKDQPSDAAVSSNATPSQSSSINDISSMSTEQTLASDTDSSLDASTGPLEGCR

[10] = molecular target: Dual specificity mitogen-activated protein kinase kinase 6 (Homo sapiens) (UniProt P52564); assay: Inhibition of MKK6 at 20 uM
[11] = test system: Mus musculus; assay: Inhibition of TGFbeta type receptor 1 in orally dosed human Calu6 cells xenografted mouse by IVTI […] assay; assay type: functional, organism-based; settings: Calu-6
[12] = molecular target: RAF proto-oncogene serine/threonine-protein kinase (Homo sapiens) (UniProt P04049); assay: Inhibition of cRaf at 20 uM
[13] = molecular target: Serine/threonine-protein kinase Chk1 (Homo sapiens) (UniProt O14757); assay: Inhibition of Chk1 at 20 uM
[14] = molecular target: Tyrosine-protein kinase Blk (Homo sapiens) (UniProt P51451); assay: Inhibition of Blk at 20 uM
[15] = test system: NIH3T3; assay: Antiproliferative activity against mouse NIH3T3 cells by [3H]thymidine assay; assay type: functional, cell-based
[16] = molecular target: MAP kinase-activated protein kinase 5 (Homo sapiens) (UniProt Q8IW41); assay: Inhibition of PRAK at 20 uM
Chain of MAP kinase-activated protein kinase 5 (Homo sapiens) (Q8IW41 whole entry): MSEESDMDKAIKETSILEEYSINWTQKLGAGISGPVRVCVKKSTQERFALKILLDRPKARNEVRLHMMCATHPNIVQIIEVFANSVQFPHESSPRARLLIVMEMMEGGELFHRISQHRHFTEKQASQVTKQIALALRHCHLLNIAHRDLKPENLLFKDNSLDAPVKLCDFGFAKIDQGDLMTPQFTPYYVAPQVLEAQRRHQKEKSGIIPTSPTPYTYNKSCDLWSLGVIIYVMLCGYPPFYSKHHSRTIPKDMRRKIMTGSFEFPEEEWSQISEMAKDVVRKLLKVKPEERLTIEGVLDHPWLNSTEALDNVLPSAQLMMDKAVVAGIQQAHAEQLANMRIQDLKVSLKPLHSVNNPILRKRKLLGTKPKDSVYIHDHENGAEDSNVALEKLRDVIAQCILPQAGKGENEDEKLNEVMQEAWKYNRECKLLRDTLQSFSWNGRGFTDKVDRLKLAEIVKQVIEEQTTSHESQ

[17] = molecular target: Mitogen-activated protein kinase 14 (Homo sapiens) (UniProt Q16539); assay: Inhibition of Sapk2-alpha at 20 uM
[18] = Inhibition of PKA at 20 uM
[19] = molecular target: Dual specificity mitogen-activated protein kinase kinase 7 (Homo sapiens) (UniProt O14733); assay: Inhibition of MKK7-beta at 20 uM
Chain of Dual specificity mitogen-activated protein kinase kinase 7 (Homo sapiens) (O14733 whole entry): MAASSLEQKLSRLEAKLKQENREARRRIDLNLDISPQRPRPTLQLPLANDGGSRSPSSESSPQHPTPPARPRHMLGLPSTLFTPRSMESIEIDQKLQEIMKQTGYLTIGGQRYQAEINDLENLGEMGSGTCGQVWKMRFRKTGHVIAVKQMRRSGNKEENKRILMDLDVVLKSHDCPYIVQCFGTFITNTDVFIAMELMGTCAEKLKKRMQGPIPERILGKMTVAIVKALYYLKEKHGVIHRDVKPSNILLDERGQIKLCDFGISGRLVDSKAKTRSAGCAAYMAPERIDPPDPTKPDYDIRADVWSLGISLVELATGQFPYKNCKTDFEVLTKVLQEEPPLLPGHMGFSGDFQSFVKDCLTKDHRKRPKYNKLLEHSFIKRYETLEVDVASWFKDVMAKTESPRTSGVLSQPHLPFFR

[20] = molecular target: Tyrosine-protein kinase ZAP-70 (Homo sapiens) (UniProt P43403); assay: Inhibition of ZAP70 at 20 uM
[21] = molecular target: Dual specificity mitogen-activated protein kinase kinase 4 (Homo sapiens) (UniProt P45985); assay: Inhibition of MKK4 at 20 uM
[22] = test system: Mus musculus; assay: Inhibition of TGFbeta type receptor 1 in human Calu6 cells xenografted mouse at 50 mg/kg, po by single point IVTI assay; assay type: functional, Calu-6; design: scale not given: the % may be the effect or the level left
[23] = molecular target: Dual specificity mitogen-activated protein kinase kinase 1 (Homo sapiens) (UniProt Q02750); assay: Inhibition of Mek1 at 20 uM
[24] = Metabolic stability in rat microsomes; assay type: ADME, Microsome
[25] = molecular target: Mitogen-activated protein kinase 1 (Homo sapiens) (UniProt P28482); assay: Inhibition of MAPK1 at 20 uM
Chain of Mitogen-activated protein kinase 1 (Homo sapiens) (P28482 whole entry): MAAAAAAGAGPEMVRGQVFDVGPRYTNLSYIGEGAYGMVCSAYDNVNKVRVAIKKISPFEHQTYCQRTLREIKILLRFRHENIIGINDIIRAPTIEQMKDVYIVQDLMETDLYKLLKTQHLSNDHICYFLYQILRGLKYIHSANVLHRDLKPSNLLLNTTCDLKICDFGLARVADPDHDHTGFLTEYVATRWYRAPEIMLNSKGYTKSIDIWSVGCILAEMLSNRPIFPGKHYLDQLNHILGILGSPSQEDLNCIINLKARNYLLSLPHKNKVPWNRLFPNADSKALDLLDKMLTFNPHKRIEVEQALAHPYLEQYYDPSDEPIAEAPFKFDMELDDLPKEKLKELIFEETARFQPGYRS

[26] = molecular target: Mitogen-activated protein kinase 10 (Homo sapiens) (UniProt P53779); assay: Inhibition of JNK3 at 20 uM
[27] = Inhibition of JNK1-alpha at 20 uM
[28] = molecular target: Rho-associated protein kinase 2 (Homo sapiens) (UniProt O75116); assay: Inhibition of Rock2 at 20 uM
[29] = molecular target: 5'-AMP-activated protein kinase subunit beta-1 (Homo sapiens) (UniProt Q9Y478); assay: Inhibition of AMPK at 20 uM
[30] = test system: Caco-2; assay: Permeability from apical to basolateral side of human Caco-2 cell membrane; assay type: ADME, cell-based
[31] = molecular target: Cyclin-dependent kinase 2 (Homo sapiens) (UniProt P24941); assay: Inhibition of CDK2 at 20 uM
[32] = molecular target: Proto-oncogene tyrosine-protein kinase Src (Homo sapiens) (UniProt P12931); assay: Inhibition of cSRC at 20 uM
[33] = molecular target: MAP kinase-activated protein kinase 2 (Homo sapiens) (UniProt P49137); assay: Inhibition of MAPKAPK2 at 20 uM
[34] = molecular target: Fibroblast growth factor receptor 3 (Homo sapiens) (UniProt P22607); assay: Inhibition of FGFR3 at 20 uM
[35] = molecular target: Tyrosine-protein kinase Lck (Homo sapiens) (UniProt P06239); assay: Inhibition of Lck at 20 uM
Chain of Tyrosine-protein kinase Lck (Homo sapiens) (P06239 2-509 limits assumed): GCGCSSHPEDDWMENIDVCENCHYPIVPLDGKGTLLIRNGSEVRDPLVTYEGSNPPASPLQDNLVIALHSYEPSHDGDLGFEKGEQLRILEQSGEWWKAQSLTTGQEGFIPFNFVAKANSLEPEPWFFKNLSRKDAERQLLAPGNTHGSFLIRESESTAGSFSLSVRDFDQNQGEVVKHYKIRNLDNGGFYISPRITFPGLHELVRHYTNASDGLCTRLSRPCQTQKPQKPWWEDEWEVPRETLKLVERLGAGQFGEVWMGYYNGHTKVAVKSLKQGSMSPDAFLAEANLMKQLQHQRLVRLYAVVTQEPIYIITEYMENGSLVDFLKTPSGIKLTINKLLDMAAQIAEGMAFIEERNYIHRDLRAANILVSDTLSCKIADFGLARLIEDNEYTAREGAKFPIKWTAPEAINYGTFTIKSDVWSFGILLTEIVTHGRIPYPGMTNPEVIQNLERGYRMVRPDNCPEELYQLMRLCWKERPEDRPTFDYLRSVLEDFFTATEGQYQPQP

[36] = molecular target: Mitogen-activated protein kinase 11 (Homo sapiens) (UniProt Q15759); assay: Inhibition of Sapk2-beta at 20 uM
[37] = molecular target: Mitogen-activated protein kinase 12 (Homo sapiens) (UniProt P53778); assay: Inhibition of Sapk3 at 20 uM
[38] = Inhibition of CaMK2 at 20 uM
[39] = molecular target: Ribosomal protein S6 kinase alpha-5 (Homo sapiens) (UniProt O75582); assay: Inhibition of MSK1 at 20 uM
[40] = molecular target: Serine/threonine-protein kinase N2 (Homo sapiens) (UniProt Q16513); assay: Inhibition of PRK2 at 20 uM
[41] = molecular target: RAC-alpha serine/threonine-protein kinase (Homo sapiens) (UniProt P31749); assay: Inhibition of PKBalpha at 20 uM
[42] = molecular target: Serine/threonine-protein kinase Chk2 (Homo sapiens) (UniProt O96017); assay: Inhibition of Chk2 at 20 uM
[43] = molecular target: Protein kinase C delta type (Homo sapiens) (UniProt Q05655); assay: Inhibition of PKCdelta at 20 uM
[44] = molecular target: Vascular endothelial growth factor receptor 2 (Homo sapiens) (UniProt P35968); assay: Inhibition of KDR at 20 uM
Chain of Vascular endothelial growth factor receptor 2 (Homo sapiens) (P35968 whole entry): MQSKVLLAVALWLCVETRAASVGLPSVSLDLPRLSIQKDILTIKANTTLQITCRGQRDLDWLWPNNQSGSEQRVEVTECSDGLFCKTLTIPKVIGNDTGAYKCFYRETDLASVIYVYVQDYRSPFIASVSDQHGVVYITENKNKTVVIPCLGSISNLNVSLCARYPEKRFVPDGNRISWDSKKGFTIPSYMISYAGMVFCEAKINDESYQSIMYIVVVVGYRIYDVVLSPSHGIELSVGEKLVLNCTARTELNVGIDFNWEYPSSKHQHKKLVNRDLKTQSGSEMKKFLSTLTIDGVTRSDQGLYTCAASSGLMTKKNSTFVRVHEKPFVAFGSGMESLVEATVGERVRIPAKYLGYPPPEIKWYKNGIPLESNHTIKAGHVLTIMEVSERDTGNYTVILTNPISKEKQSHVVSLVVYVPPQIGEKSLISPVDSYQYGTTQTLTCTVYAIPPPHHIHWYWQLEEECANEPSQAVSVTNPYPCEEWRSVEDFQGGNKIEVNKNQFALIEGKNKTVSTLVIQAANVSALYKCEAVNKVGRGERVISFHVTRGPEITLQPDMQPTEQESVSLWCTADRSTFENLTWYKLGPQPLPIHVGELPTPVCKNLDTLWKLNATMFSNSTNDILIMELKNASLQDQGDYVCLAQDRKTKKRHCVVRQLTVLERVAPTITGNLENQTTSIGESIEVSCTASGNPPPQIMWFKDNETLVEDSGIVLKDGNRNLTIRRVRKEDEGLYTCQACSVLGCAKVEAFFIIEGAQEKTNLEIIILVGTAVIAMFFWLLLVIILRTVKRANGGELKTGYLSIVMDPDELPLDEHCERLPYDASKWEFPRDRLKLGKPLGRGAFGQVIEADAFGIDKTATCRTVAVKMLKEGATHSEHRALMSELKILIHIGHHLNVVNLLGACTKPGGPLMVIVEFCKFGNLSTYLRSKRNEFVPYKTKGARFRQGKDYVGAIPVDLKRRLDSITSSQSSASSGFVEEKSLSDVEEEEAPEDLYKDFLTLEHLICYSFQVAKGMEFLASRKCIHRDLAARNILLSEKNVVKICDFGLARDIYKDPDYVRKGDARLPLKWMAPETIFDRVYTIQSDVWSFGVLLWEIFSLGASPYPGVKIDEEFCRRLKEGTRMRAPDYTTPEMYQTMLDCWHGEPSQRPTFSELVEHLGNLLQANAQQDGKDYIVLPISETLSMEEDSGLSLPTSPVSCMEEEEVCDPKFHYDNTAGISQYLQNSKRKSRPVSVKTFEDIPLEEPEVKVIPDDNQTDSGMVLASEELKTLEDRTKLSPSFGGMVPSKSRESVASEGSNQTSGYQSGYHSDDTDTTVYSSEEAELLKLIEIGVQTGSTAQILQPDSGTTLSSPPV

[45] = molecular target: Serine/threonine-protein kinase Sgk1 (Homo sapiens) (UniProt O00141); assay: Inhibition of SGK at 20 uM
[46] = AUC in rat at 10 mg/kg, po; assay type: ADME, organism-based; design: dose 10 mg/kg, route oral; settings: plasma
[47] = test system: MX1; assay: Effect on tumor growth delay in human MX1 cells xenografted in mouse administered 75 mg/kg, po twice a day after 7 days of inoculation for 20 days; assay type: functional, organism-based; design: dose 75 mg/kg
[48] = Oral bioavailability in rat at 10 mg/kg after 24 hrs; assay type: ADME, organism-based; settings: in vivo
[49] = AUC in rat at 10 mg/kg, po after 24 hrs; assay type: ADME, organism-based; design: time < 24 hr, dose 10 mg/kg, route oral; settings: plasma
[50] = test system: Mus musculus; assay: Inhibition of TGFbeta type receptor 1 in human Calu6 cells xenografted mouse at 75 mg/kg, po after 4 hrs by IVTI pharmacodynamic assay; assay type: functional; settings: Calu-6, 4 h
[51] = test system: Liver microsomes; assay: Metabolic stability in human liver microsomes; assay type: ADME, Microsome

## CN(C)CCOc1ccc2c(-c3c(-c4ccccn4)nn4c3CCC4)ccnc2c1
[1]
  inhibition: < 50%
[2]
  inhibition: < 50%
[3]
  inhibition: < 50%
[4]
  inhibition: < 50%
[5]
  inhibition: < 50%
[6]
  inhibition: 18%
[7]
  inhibition: < 50%
[8]
  inhibition: < 50%
[9]
  inhibition: < 50%
[10]
  inhibition: 62%
[11]
  EC50: 310 nM
[12]
  inhibition: < 50%
[13]
  inhibition: < 50%
[14]
  inhibition: < 50%
[15]
  IC50: 98 nM
[16]
  inhibition: < 50%
[17]
  inhibition: 87%
[18]
  inhibition: < 50%
[19]
  inhibition: < 50%
[20]
  inhibition: < 50%
[21]
  inhibition: < 50%
[22]
  Activity: 59%
[23]
  inhibition: < 50%
[24]
  Stability: 60%
[25]
  inhibition: 30%
[26]
  inhibition: 51%
[27]
  inhibition: < 50%
[28]
  inhibition: < 50%
[29]
  inhibition: < 50%
[30]
  permeability: 28%
[31]
  inhibition: < 50%
[32]
  inhibition: < 50%
[33]
  inhibition: < 50%
[34]
  inhibition: < 50%
[35]
  inhibition: 81%
[36]
  inhibition: 29%
[37]
  inhibition: < 50%
[38]
  inhibition: < 50%
[39]
  inhibition: < 50%
[40]
  inhibition: < 50%
[41]
  inhibition: < 50%
[42]
  inhibition: < 50%
[43]
  inhibition: < 50%
[44]
  inhibition: < 50%
[45]
  inhibition: < 50%

## CN(C)CC(=O)Nc1ccc2c(-c3c(-c4ccccn4)nn4c3CCC4)ccnc2c1
[46]
  AUC: 398 ng·h/mL

## c1ccc(-c2nn3c(c2-c2ccnc4cc(OCCN5CCOCC5)ccc24)CCC3)nc1
[1]
  inhibition: < 50%
[2]
  inhibition: < 50%
[3]
  inhibition: < 50%
[4]
  inhibition: < 50%
[5]
  inhibition: < 50%
[47]
  Activity: Active
[6]
  inhibition: 58%
[7]
  inhibition: < 50%
[8]
  inhibition: < 50%
[9]
  inhibition: < 50%
[10]
  inhibition: 80%
[11]
  EC50: 236 nM
[12]
  inhibition: < 50%
[13]
  inhibition: < 50%
[14]
  inhibition: < 50%
[48]
  bioavailability: 21%
[15]
  IC50: 210 nM
[16]
  inhibition: < 50%
[17]
  inhibition: 89%
[49]
  AUC at 24 h: 1000 ng·h/mL
[18]
  inhibition: < 50%
[19]
  inhibition: < 50%
[20]
  inhibition: < 50%
[21]
  inhibition: < 50%
[22]
  Activity: 56%
[23]
  inhibition: < 50%
[24]
  Stability: 58%
[50]
  inhibition in vivo at 75 mg/kg: 48%
[25]
  inhibition: 31%
[26]
  inhibition: 68%
[27]
  inhibition: < 50%
[51]
  Stability: 27%
[28]
  inhibition: < 50%
[29]
  inhibition: < 50%
[30]
  permeability: 28%
[31]
  inhibition: < 50%
[32]
  inhibition: < 50%
[33]
  inhibition: < 50%
[34]
  inhibition: < 50%
[35]
  inhibition: 69%
[36]
  inhibition: 47%
[37]
  inhibition: < 50%
[38]
  inhibition: < 50%
[39]
  inhibition: < 50%
[40]
  inhibition: < 50%
[41]
  inhibition: < 50%
[42]
  inhibition: < 50%
[43]
  inhibition: < 50%
[44]
  inhibition: < 50%
[45]
  inhibition: < 50%
